The assay deals with T1, recombinant human 5-HT5A receptor (Homo sapiens, UniProt P47898).
T1 construct: expressed in transfected cells; host or cells: HEK-EBNA (Human Embryonic Kidney-EBNA) cells, transient cDNA expression; membranes
In words: [3H]LSD radioligand binding assay, membranes from HEK-EBNA cells transiently expressing 5-HT5A receptors. Conditions: [3H]LSD approximately 1 nM; HEK-EBNA cell membranes; SPA beads; 120 min at room temperature; Ki from IC50 by Cheng-Prussoff equation. The method, then:
A [^3H]LSD radioligand binding assay was used to determine the affinity of the compounds for the recombinant human 5-HT5A receptor, in membranes from transiently (cDNA) expressed 5-HT5A receptors in Human Embryonic Kidney-EBNA (HEK-EBNA) cells. Assay buffer consisted of Tris (50 mM) buffer containing 1 mM EGTA, 10 mM MgCl2 (pH 7.4) and 10 μM pargyline. The binding assay was carried out in 96-well-plates in the presence of [^3H]LSD (approximately 1 nM), approximately 2 μg/well of membrane protein, and 0.5 mg of Ysi-poly-1-lysine SPA beads in a final volume of 200 μl of buffer. Non-specific binding was defined using methiothepin 2 μM. Compounds were tested at 10 concentrations. All assays were conducted in duplicate and repeated at least two times. Assay plates were incubated for 120 min at room temperature before centrifugation. Bound ligand was determined using a Packard Topcount scintillation counter. IC50 values were calculated using a non-linear curve fitting program and Ki values calculated using the Cheng-Prussoff equation.

T1 sequence (P47898 whole entry): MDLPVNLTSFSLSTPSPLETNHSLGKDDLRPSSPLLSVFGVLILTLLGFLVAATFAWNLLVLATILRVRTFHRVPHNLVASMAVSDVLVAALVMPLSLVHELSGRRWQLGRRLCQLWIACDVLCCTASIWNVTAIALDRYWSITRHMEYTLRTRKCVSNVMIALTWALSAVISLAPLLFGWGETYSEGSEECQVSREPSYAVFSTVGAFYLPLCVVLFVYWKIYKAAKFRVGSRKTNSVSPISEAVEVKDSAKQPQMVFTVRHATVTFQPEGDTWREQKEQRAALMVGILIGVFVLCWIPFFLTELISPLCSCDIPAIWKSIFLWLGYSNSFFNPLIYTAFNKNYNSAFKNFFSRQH

One may read the Ki as the dissociation constant of the complex between target and ligand, obtained from inhibition or displacement. On to `c1ccc2c(c1)CC[C@H]2NC1=Nc2ccccc2C(c2ccsc2)N1` (stereo partly drawn) [Example 23, (R)-Indan-1-yl-(4-thiophen-3-yl-3,4-dihydro-quinazolin-2-yl)-amine], for which the Ki stood at 133 nM.
For the compound `Cc1cccc2c1N=C(NC1CCc3ccccc31)NC2` (centres unmarked) [Example 3, Indan-1-yl-(8-methyl-3,4-dihydro-quinazolin-2-yl)-amine], the Ki stood at 32 nM.
For the compound `Clc1ccc2c(c1)C(c1ccccc1Cl)NC(NC1CCc3ccccc31)=N2` (stereo in doubt) [Example 22, [6-Chloro-4-(2-chloro-phenyl)-3,4-dihydro-quinazolin-2-yl]-(R)-indan-1-yl-amine], the Ki came out at 655 nM.
Take `Cc1ccc2c(c1)CNC(NC1CCc3ccccc31)=N2` (centres unmarked) [Example 7, Indan-1-yl-(6-methyl-3,4-dihydro-quinazolin-2-yl)-amine]: the Ki was 50 nM.
Consider `Clc1ccc(Cl)c(C2NC(NC3CCc4ccccc43)=Nc3ccccc32)c1` (stereo in doubt) [Example 20, [4-(2,5-Dichloro-phenyl)-3,4-dihydro-quinazolin-2-yl]-(R)-indan-1-yl-amine], for which the Ki amounted to 550 nM.
The figure for `Clc1ccc2c(c1)N=C(NC1CCc3ccccc31)NC2` (centres unmarked) [Example 12, (7-Chloro-3,4-dihydro-quinazolin-2-yl)-indan-1-yl-amine] is 174 nM; for `c1ccc(C2NC(NC3CCc4ccccc43)=Nc3ccccc32)cc1` (centres unmarked) [Example 14, Indan-1-yl-(4-phenyl-3,4-dihydro-quinazolin-2-yl)-amine] it is 310 nM; for `CC1NC(NC2CCc3ccccc32)=Nc2ccccc21` (centres unmarked) [Example 9, Indan-1-yl-(4-methyl-3,4-dihydro-quinazolin-2-yl)-amine] it is 80 nM.
As to `COc1ccc2c(c1)CNC(NC1CCc3ccccc31)=N2` (centres unmarked) [Example 11, Indan-1-yl-(6-methoxy-3,4-dihydro-quinazolin-2-yl)-amine], the Ki was found to be 125 nM.
With `c1ccc2c(c1)CNC(N[C@@H]1CCc3ccccc31)=N2` [Example 1, (3,4-Dihydro-quinazolin-2-yl)-(R)-indan-1-yl-amine], the Ki is 25 nM.
As for `COc1ccc2c(c1)N=C(NC1CCc3ccccc31)NC2` (centres unmarked) [Example 15, Indan-1-yl-(7-methoxy-3,4-dihydro-quinazolin-2-yl)-amine], the figure is 310 nM; as for `Clc1ccc2c(c1Cl)CNC(NC1CCc3ccccc31)=N2` (centres unmarked) [Example 5, (5,6-Dichloro-3,4-dihydro-quinazolin-2-yl)-indan-1-yl-amine], 39 nM; as for `Cc1noc(C)c1C1NC(N[C@@H]2CCc3ccccc32)=Nc2ccccc21` (stereo partly drawn) [Example 25, [4-(3,5-Dimethyl-isoxazol-4-yl)-3,4-dihydro-quinazolin-2-yl]-(R)-indan-1-yl-amine], 863 nM.
For the compound `Clc1ccc2c(c1)C(c1ccccc1)NC(NC1CCc3ccccc31)=N2` (centres unmarked) [Example 18, (6-Chloro-4-phenyl-3,4-dihydro-quinazolin-2-yl)-indan-1-yl-amine], the inhibition constant (Ki) worked out at 410 nM.
Regarding `c1ccc2c(c1)CNC(N[C@H]1CCc3ccccc31)=N2` [Example 17, (3,4-Dihydro-quinazolin-2-yl)-(S)-indan-1-yl-amine], the Ki stood at 350 nM.
On to `Clc1cccc2c1CNC(NC1CCc3ccccc31)=N2` (centres unmarked) [Example 2, (5-Chloro-3,4-dihydro-quinazolin-2-yl)-indan-1-yl-amine], for which the Ki stood at 32 nM.
As to `CC1NC(NC2CCc3ccccc32)=Nc2cc(Cl)c(Cl)cc21` (centres unmarked) [Example 10, (6,7-Dichloro-4-methyl-3,4-dihydro-quinazolin-2-yl)-indan-1-yl-amine], the Ki turned out to be 71 nM.
`COc1cc2c(cc1OC)N=C(NC1CCc3ccccc31)NC2` (centres unmarked) [Example 16, (6,7-Dimethoxy-3,4-dihydro-quinazolin-2-yl)-indan-1-yl-amine]: the Ki worked out at 350 nM.
Take `Clc1ccc2c(c1)C(c1ccccc1Cl)NC(NC1CCc3ccccc31)=N2` (stereo in doubt) [Example 21, [6-Chloro-4-(2-chloro-phenyl)-3,4-dihydro-quinazolin-2-yl]-(S)-indan-1-yl-amine]: the Ki was 595 nM.
Take `Clc1ccc(Cl)c(C2NC(NC3CCc4ccccc43)=Nc3ccccc32)c1` (stereo in doubt) [Example 19, [4-(2,5-Dichloro-phenyl)-3,4-dihydro-quinazolin-2-yl]-(S)-indan-1-yl-amine]: the Ki worked out at 550 nM.
Take `Cc1cccc2c1CNC(NC1CCc3ccccc31)=N2` (centres unmarked) [Example 8, Indan-1-yl-(5-methyl-3,4-dihydro-quinazolin-2-yl)-amine]: the Ki turned out to be 55 nM.
In the case of `c1ccc2c(c1)CC[C@@H]2NC1=Nc2ccccc2C(c2ccsc2)N1` (stereo partly drawn) [Example 24, (S)-Indan-1-yl-(4-thiophen-3-yl-3,4-dihydro-quinazolin-2-yl)-amine], the inhibitory constant (Ki) came out at 293 nM.
Turning to `FC(F)(F)c1ccc2c(c1)N=C(NC1CCc3ccccc31)NC2` (centres unmarked) [Example 13, Indan-1-yl-(7-trifluoromethyl-3,4-dihydro-quinazolin-2-yl)-amine], the Ki is 260 nM.
Consider `Cc1noc(C)c1C1NC(N[C@H]2CCc3ccccc32)=Nc2ccccc21` (stereo partly drawn) [Example 26, [4-(3,5-Dimethyl-isoxazol-4-yl)-3,4-dihydro-quinazolin-2-yl]-(S)-indan-1-yl-amine], for which the Ki was 1200 nM.
`Fc1cccc2c1CNC(NC1CCc3ccccc31)=N2` (centres unmarked) [Example 6, (5-Fluoro-3,4-dihydro-quinazolin-2-yl)-indan-1-yl-amine]: the Ki stood at 48 nM.
The figure for `Fc1ccc2c(c1)CNC(NC1CCc3ccccc31)=N2` (centres unmarked) [Example 4, (6-Fluoro-3,4-dihydro-quinazolin-2-yl)-indan-1-yl-amine] is 35 nM.

Source of the values: patent US7348332B2, “(3,4-dihydro-quinazolin-2-yl)-indan-1-yl-amines” (Hoffmann-La Rochse Inc., priority 2005, dated 2008).
